Results from patent US7220775B2, “Compound useful for the treatment of neuropathic pain” (H. Lundbeck A/S, priority 2002, dated 2007).

Columns and labels:
[1] = biological target: T1, 5HT transporter (r5HT Uptk) (Rattus norvegicus, UniProt P31652); assay: Binding at native 5HT transporter; details: Table 8
T1 construct: native, tissue-derived transporters; from tissue
Protocol: (§1) The binding properties of the compounds of the present invention were evaluated at one or more cloned receptors or native, tissue-derived transporters, using protocols described below.
(§2) The methods to determine binding affinity at native transporters are described in the following publications: 5HT transporter and NE transporter (Owens et al., 1997), and DA transporter (Javitch et al, 1984).

[2] = biological target: NE transporter (rNE Uptk) (Rattus norvegicus, UniProt Q9WTR4); assay: Binding at native NE transporter; details: Table 7, native transporter
Protocol: as §1, §2

[3] = system: NE transporter (rNE Uptk); assay: Binding at native NE transporter; set-up: species or system rat; details: Table 8
Protocol: as §1, §2

[4] = biological target: T2, human α1D adrenergic receptor (Homo sapiens, UniProt P25100); assay: α1D adrenergic receptor binding; details: Table 10
T2 construct: expressed in transfected cells
T2 sequence (P25100 whole entry): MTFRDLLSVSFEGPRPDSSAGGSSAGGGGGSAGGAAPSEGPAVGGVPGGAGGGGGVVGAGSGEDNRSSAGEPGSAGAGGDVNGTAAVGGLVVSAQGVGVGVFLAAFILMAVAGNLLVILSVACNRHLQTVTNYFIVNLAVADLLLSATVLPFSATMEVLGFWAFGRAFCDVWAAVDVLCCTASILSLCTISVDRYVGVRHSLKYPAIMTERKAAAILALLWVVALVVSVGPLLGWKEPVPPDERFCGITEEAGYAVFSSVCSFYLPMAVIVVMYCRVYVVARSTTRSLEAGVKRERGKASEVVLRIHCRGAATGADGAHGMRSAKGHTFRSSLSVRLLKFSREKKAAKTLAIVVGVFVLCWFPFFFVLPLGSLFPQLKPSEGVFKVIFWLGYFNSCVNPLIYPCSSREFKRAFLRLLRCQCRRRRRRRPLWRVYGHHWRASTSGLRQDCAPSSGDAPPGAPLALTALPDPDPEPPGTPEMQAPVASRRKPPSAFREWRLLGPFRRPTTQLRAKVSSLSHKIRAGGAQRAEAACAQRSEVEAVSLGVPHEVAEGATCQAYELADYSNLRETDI
Source text: (§3) Other receptors: Cell membranes expressing human dopamine D1, D2, D4 and rat D3 receptors were purchased through BioSignal, Inc. (Montreal, Canada). Binding assays using the histamine H, receptor; dopamine receptors; and α1A, α1B, and α2 adrenergic receptors may be carried out according to the procedures described in U.S. Pat. No. 5,780,485, the disclosure of which is hereby incorporated by reference in its entirety into this application. Binding assays using the dopamine D5 receptor may be carried out according to the procedures described in U.S. Pat. No. 5,882,855, the disclosure of which is hereby incorporated by reference in its entirety into this application. Binding assays for the human α1D adrenergic receptor may be carried out according to the procedures described in U.S. Pat. No. 6,156,518, the disclosure of which is hereby incorporated by reference in its entirety into this application.

human α2B adrenoceptor = biological target: T3, human α2B adrenoceptor (Homo sapiens, UniProt P18089); assay: α2B adrenergic receptor binding; details: Table 10
T3 construct: expressed in transfected cells
T3 sequence (P18089 whole entry): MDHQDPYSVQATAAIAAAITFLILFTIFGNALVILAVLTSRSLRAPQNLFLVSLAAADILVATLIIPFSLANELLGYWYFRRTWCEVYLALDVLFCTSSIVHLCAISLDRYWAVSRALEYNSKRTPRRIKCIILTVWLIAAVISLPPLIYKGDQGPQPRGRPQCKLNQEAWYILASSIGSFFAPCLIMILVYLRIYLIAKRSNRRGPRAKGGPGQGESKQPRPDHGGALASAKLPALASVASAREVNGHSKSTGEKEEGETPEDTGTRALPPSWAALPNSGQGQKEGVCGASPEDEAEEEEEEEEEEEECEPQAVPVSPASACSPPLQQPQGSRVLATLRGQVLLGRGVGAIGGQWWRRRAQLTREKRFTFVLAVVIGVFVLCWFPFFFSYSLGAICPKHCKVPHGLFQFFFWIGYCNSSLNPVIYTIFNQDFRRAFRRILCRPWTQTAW
Source text: as §3

[5] = biological target: T4, human dopamine D2 receptor (Homo sapiens, UniProt P14416); assay: Dopamine D2 receptor binding; details: Table 10
T4 construct: purchased BioSignal, Inc. (Montreal, Canada)
T4 sequence (P14416 whole entry): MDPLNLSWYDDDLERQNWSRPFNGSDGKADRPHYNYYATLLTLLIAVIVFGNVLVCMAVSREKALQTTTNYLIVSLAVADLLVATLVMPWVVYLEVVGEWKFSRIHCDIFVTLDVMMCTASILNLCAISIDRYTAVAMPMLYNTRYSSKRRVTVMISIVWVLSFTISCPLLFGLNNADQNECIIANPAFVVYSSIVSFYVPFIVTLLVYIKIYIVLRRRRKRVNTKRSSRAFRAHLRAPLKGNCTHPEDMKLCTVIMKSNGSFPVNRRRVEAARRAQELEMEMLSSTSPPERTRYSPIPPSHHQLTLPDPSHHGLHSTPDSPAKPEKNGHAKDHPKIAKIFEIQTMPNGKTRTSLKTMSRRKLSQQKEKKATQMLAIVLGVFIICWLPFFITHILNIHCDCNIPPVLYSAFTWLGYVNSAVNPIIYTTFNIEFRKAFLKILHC
Source text: as §3

rat D3 receptor = biological target: T5, rat D3 receptor (Rattus norvegicus, UniProt P19020); assay: Dopamine D3 receptor binding; details: Table 10
T5 construct: purchased BioSignal, Inc. (Montreal, Canada)
T5 sequence (P19020 whole entry): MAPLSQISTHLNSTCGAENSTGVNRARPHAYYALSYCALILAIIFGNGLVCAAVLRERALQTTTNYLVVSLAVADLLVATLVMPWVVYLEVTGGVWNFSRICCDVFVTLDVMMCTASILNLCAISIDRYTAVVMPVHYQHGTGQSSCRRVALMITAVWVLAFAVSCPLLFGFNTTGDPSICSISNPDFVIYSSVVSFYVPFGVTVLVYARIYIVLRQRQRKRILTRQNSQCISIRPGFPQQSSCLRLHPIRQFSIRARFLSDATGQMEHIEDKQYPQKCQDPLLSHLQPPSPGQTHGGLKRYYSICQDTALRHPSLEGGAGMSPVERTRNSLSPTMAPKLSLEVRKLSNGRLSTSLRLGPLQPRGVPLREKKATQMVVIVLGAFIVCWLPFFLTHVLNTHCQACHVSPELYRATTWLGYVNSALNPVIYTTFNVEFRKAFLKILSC
Source text: as §3

human α2C adrenoceptor = biological target: T6, human α2C adrenoceptor (Homo sapiens, UniProt P18825); assay: α2C adrenergic receptor binding; details: Table 10
T6 construct: expressed in transfected cells
T6 sequence (P18825 whole entry): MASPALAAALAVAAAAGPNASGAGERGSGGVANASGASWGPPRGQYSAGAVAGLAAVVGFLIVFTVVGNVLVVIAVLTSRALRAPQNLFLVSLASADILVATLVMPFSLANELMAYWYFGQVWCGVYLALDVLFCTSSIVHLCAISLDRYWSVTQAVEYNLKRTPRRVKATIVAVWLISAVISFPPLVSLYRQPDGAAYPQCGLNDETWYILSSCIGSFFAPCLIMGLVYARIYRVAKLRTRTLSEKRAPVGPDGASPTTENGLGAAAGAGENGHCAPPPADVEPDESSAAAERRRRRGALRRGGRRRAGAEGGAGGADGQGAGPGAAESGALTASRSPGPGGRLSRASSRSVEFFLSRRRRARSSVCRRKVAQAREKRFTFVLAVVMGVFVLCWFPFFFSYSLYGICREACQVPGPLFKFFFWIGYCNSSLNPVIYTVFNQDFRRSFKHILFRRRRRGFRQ
Source text: as §3

[6] = biological target: T7, human dopamine D4 receptor (Homo sapiens, UniProt P21917); assay: Dopamine D4 receptor binding; details: Table 10
T7 construct: purchased BioSignal, Inc. (Montreal, Canada)
T7 sequence (P21917 whole entry): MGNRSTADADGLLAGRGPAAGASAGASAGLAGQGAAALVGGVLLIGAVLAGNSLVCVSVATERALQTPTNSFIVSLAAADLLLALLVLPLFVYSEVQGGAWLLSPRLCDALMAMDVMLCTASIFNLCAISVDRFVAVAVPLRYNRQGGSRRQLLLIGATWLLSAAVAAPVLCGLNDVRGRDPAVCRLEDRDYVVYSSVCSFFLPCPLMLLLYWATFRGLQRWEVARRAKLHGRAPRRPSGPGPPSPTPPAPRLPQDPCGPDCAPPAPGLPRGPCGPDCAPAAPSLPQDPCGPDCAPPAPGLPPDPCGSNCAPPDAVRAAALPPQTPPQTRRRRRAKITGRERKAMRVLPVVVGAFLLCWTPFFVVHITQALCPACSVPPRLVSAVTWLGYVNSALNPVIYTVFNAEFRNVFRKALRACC
Source text: as §3

h5HT1A = biological target: T8, h5HT1A (Homo sapiens, UniProt P08908); assay: 5-HT1A receptor binding (3H-8-OH-DPAT); details: Table 8
T8 construct: expressed in transfected cells; host or cells: COS-7 cells, transient, vector pCEXV-3
T8 sequence (P08908 whole entry): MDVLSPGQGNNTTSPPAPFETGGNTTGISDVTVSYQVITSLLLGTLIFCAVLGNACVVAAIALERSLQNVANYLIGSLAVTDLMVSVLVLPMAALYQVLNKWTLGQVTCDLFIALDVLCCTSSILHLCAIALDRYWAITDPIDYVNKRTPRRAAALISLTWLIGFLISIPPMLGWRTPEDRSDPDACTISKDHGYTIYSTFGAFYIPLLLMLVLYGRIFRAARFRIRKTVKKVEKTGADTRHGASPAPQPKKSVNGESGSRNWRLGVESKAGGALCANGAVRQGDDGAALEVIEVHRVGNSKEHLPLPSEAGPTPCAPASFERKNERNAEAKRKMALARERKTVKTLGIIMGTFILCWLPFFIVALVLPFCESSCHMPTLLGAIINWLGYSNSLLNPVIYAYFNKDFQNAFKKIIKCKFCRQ
Protocol: 5-HT1A Receptor: The cDNA corresponding to the 5-HT1A receptor open reading frames and variable non-coding 5′- and 3′-regions, was cloned into the eukaryotic expression vector pCEXV-3. These constructs were transfected transiently into COS-7 cells by the DEAE-dextran method (Cullen, 1987), and harvested after 72 hours. Radioligand binding assays were performed as described above for the 5-HT2A receptor, except that ^3H-8-OH-DPAT was used as the radioligand and nonspecific binding was determined by the addition of 10 μM mianserin.

[7] = biological target: human dopamine D5 receptor (Homo sapiens, UniProt P21918); assay: Dopamine D5 receptor binding; details: Table 10
human dopamine D5 receptor, sequence (P21918 whole entry): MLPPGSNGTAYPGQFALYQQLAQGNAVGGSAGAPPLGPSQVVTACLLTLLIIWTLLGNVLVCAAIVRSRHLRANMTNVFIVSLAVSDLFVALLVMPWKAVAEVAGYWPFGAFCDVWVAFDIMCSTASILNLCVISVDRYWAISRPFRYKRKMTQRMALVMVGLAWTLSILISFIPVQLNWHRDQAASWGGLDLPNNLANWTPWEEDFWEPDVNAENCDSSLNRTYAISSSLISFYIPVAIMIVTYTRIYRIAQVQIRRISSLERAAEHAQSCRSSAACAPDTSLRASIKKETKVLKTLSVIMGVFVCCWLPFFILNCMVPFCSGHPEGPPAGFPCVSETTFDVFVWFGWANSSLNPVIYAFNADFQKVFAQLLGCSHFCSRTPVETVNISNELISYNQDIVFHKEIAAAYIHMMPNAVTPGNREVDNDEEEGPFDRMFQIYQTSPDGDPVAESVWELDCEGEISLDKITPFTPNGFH
Source text: as §3

Human 5HT1B receptor = biological target: T9, Human 5HT1B receptor (Homo sapiens, UniProt P28222); assay: 5HT1B receptor binding ([3H]-serotonin); details: Table 8
T9 construct: expressed in transfected cells
T9 sequence (P28222 whole entry): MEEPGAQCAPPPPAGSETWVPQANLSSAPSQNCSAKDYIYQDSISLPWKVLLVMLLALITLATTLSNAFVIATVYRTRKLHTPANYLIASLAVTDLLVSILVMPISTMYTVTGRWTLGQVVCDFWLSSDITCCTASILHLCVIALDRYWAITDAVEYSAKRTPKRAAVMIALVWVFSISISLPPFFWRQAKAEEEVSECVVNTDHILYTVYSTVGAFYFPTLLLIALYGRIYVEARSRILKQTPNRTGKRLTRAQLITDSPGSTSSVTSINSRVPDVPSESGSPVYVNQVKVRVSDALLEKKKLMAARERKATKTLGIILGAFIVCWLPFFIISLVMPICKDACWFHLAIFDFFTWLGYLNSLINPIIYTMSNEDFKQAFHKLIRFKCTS
Protocol: Human 5HT1B, 5HT1D, 5HT1E, 5HT1F, and 5HT7 Receptors: The cell lysates of LM(tk−) clonal cell line stably transfected with the genes encoding each of these 5HT receptor-subtypes were prepared as described above. Cell membranes were suspended in 50 mM Tris-HCl buffer (pH 7.4 at 37° C.) containing 10 mM MgCl2, 0.2 mM EDTA, 10 µM pargyline, and 0.1% ascorbate. […] Nonspecific binding was determined in the presence of 10 μM serotonin. The bound radioligand was separated by filtration through GF/B filters using a cell harvester.

T1 sequence (P31652 whole entry): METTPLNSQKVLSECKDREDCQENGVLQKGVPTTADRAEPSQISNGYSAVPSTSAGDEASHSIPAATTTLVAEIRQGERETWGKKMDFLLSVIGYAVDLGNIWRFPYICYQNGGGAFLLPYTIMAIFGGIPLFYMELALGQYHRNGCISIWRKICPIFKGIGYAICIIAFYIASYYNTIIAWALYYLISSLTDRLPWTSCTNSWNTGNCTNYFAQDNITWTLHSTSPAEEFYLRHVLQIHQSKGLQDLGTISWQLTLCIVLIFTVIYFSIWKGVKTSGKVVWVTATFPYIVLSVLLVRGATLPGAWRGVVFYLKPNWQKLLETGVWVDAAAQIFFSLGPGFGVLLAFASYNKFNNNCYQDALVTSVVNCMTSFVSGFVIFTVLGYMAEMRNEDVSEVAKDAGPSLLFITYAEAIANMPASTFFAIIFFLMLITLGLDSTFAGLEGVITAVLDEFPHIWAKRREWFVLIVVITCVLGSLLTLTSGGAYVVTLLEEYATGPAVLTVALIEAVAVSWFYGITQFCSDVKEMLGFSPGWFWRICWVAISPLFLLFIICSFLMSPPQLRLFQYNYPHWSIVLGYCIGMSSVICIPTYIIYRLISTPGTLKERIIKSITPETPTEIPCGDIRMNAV

O=C1C(=Nc2cccc(C(F)(F)F)c2)c2ccccc2N1c1ccccc1 [Example 92, 1-PHENYL-3-[[3-(TRIFLUOROMETHYL)PHENYL]IMINO]-1,3-DIHYDRO-2H-INDOL-2-ONE]
selectivity ratio r5HT Uptk (Ki r5HT Uptk / Ki hGAL3) [1]: >100
Ki [2]: 33.9 µM
selectivity ratio rNE Uptk (Ki rNE Uptk / Ki hGAL3) [3]: >100
selectivity ratio hα1D (Ki hα1D / Ki hGAL3) [4]: >100
selectivity ratio hα2B (Ki hα2B / Ki hGAL3) (human α2B adrenoceptor): >100
selectivity ratio hD2 (Ki hD2 / Ki hGAL3) [5]: >100
selectivity ratio rD3 (Ki rD3 / Ki hGAL3) (rat D3 receptor): >100
selectivity ratio hα2C (Ki hα2C / Ki hGAL3) (human α2C adrenoceptor): >100
selectivity ratio hD4 (Ki hD4 / Ki hGAL3) [6]: >100
selectivity ratio h5HT1A (Ki h5HT1A / Ki hGAL3) (h5HT1A): >100
selectivity ratio hD5 (Ki hD5 / Ki hGAL3) [7]: >100
selectivity ratio h5HT1B (Ki h5HT1B / Ki hGAL3) (Human 5HT1B receptor): >100
